Experimental data published in paper PMC11818404, “Experimental and Computational Investigation of the Target and Mechanisms of Gelsemium Alkaloids in the Central Nervous System” (International Journal of Molecular Sciences, 2025).
Where two headings read alike, the source gives them in different places.

Assays:
[1] = molecular target: T1, α1 GlyR (Homo sapiens, UniProt P23415); experiment: Whole-cell patch-clamp of glycine-evoked currents, transfected HEK293 cells; format: cell-based; conditions: for activity on GlyR currents (in words): GlyRs (α1 and α1β), single concentration 300 µM; for percentage change in peak current modulation: alkaloid 300 µM co-applied with subsaturated glycine, mean ± SE
T1 construct: expressed in transfected cells; host or cells: HEK293
T1 sequence (P23415 29-449 isoform P23415-2 limits assumed): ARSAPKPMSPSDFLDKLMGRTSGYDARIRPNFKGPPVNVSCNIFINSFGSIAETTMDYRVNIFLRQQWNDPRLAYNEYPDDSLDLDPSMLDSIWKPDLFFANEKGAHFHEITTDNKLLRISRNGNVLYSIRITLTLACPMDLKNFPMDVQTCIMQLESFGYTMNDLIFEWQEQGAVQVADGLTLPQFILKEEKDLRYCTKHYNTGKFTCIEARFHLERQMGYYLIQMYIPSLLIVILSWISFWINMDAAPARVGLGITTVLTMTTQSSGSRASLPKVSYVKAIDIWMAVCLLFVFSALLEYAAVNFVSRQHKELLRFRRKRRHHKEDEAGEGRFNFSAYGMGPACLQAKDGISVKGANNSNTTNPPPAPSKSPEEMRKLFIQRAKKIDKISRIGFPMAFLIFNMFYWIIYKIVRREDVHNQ
Description: (§1) HEK293 cells were obtained from Beijing Aisiyipu Biotechnology Co. Cells were cultured in Dulbecco’s Modified Eagle Medium containing 10% fetal bovine serum, 800 µg/mL G418, 200 µg/mL hygromycin B, and 100 µg/mL Zeocin at 37 °C and 5% CO2. Cells were transfected with plasmids encoding the following proteins: (i). nAChRα7 (CHRNA7, NM_000746; RIC3, NM_024557), (ii) GABA-α1 (NM_000806), GABA-β2 (NM_021911), and GABA-γ2 (NM_198904), and (iii) GlyR α1 (NM_000171) and GlyR β (NM_000824). To obtain β-containing GlyRs, an α/β transfection ratio of 1:5 was used; for γ2-containing GABAARs, the ratio was 1:2:5 of α/β/γ2.
(§2) For whole-cell recording, the […] contained 140 mM NaCl, 3.5 mM KCl, 1 mM MgCl2•6H2O, 2 mM CaCl2•2H2O, 10 mM D-glucose, 10 mM HEPES, and 1.25 mM NaH2PO4•2H2O, (pH 7.4). The […] solution contained 50 mM CsCl, 10 mM NaCl, 10 mM HEPES, 60 mM CsF, and 20 mM EGTA (pH 7.2). Briefly, during the diaphragm clamp operation, the glass capillary was drawn into a recording electrode using a microelectrode puller. Subsequently, the electrode filled with intracellular fluid was loaded into the microelectrode holder, and the cell-lined coverslip was placed in the recording bath under an inverted microscope, followed by manipulation of the microelectrode manipulator to immerse the electrode into the extracellular fluid under an inverted microscope. Electrode resistance (Rpip) was recorded, and the electrode was gently positioned on the cell surface with negative pressure applied to establish a GΩ-level high-resistance seal. Fast capacitance compensation was performed, followed by additional suction to breach the cell membrane and form a whole-cell recording. Finally, slow capacitance compensation was performed, and experimental parameters such as series resistance (Rs) were recorded. Leakage compensation was not provided. Whole-cell patch-clamp recordings were performed at −70 mV using HEKA EPC-10 (HEKA Elektronik GmbH, Reutlingen, Germany) amplifiers. Data acquisition was performed using the HEKA PatchMaster. We aimed to study the allosteric regulation of GABAAR and GlyR by Gelsemium alkaloids, so the effects of the alkaloids on Gly- or GABA-evoked currents were determined via co-application of subsaturated agonist concentrations (EC10 and EC50) together with the alkaloid. The EC50 for α1 GlyR was 30 µM, whereas the EC10 for α1β2γ2 GABAAR was 3.0 µM. The choice of specific agonist concentration was determined based on previous studies. We first examined the effects of each Gelsemium alkaloid at a concentration of 300 µM on channel currents. The peak receptor currents for subsaturated concentrations of specific agonists and the peak receptor currents after administration of each drug were recorded, and the modulation percentage was calculated for each drug. The modulation percentage was calculated using Equation (1):Percentage change = ((Ialkaloid − Iagonist)/Iagonist),(1) where Ialkaloid denotes the current in the presence of a given concentration of alkaloid, and Iagonist denotes the amplitude of the control glycine or GABA current elicited by the activation of a given receptor. To construct the concentration-response curve, six graded concentrations (1 µM, 3 µM, 10 µM, 30 µM, 100 µM, and 300 µM) of each Gelsemium alkaloid were tested. The concentration-response curve parameters for alkaloid inhibition were obtained from the curve of the normalized concentration-response data points fitted using Equation (2):Iagonist = Imax (agonist)nH/((agonist)nH + (EC50) nH), (2) where Iagonist is the current in the presence of a given subsaturated concentration of GABA, and EC50 is the concentration required for the half-maximal response. Each drug was repeated four times per concentration, and the data were expressed as the mean ± SE All electrophysiological tests performed at 20 °C.

[2] = molecular target: T2, α1β GlyR (Homo sapiens, UniProt P23415); experiment: as above; format: cell-based; conditions: α1βGlyR; alkaloid 300 µM co-applied with subsaturated glycine; mean ± SE
T2 construct: expressed in transfected cells; host or cells: HEK293
T2 sequence (P48167 23-497 partner, one chain of several): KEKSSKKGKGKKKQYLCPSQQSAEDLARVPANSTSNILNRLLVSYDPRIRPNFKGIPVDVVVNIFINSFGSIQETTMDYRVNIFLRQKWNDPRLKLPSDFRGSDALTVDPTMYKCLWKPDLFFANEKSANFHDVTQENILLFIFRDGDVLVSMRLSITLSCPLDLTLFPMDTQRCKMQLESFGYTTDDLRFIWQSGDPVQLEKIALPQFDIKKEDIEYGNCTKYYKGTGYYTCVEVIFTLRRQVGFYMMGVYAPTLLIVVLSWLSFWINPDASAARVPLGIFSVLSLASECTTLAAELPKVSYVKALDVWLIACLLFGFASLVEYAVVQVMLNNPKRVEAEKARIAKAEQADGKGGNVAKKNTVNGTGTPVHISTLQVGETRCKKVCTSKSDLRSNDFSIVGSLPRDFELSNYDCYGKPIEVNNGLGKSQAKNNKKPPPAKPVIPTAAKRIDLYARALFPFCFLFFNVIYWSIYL
Description: as §1, §2

[3] = molecular target: T3, α1β2γ2 GABAAR (Homo sapiens, UniProt P14867+P18507+P47870); experiment: Whole-cell patch-clamp of GABA-evoked currents, transfected HEK293 cells; format: cell-based; conditions: for Hillslope: GABAAR concentration-response curve; for percentage change in peak current modulation / IC50: GABAAR; for percentage change in peak current modulation: alkaloid 300 µM co-applied with subsaturated GABA, mean ± SE; for IC50: reduction of GABA-evoked current, n = 4
T3 construct: expressed in transfected cells; host or cells: HEK293
T3 sequence (P18507 40-475): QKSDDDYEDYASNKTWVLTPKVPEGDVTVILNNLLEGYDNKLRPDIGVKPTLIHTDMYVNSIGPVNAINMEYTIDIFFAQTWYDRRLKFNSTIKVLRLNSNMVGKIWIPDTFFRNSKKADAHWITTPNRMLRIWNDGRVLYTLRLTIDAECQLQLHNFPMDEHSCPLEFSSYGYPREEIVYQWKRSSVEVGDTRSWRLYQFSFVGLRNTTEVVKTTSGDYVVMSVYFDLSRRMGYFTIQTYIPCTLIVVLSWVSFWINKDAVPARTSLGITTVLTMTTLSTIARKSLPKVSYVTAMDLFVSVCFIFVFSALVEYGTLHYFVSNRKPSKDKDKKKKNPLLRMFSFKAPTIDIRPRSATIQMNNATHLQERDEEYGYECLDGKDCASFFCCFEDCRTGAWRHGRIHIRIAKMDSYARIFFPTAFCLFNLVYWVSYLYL
T3 sequence (P14867 28-456): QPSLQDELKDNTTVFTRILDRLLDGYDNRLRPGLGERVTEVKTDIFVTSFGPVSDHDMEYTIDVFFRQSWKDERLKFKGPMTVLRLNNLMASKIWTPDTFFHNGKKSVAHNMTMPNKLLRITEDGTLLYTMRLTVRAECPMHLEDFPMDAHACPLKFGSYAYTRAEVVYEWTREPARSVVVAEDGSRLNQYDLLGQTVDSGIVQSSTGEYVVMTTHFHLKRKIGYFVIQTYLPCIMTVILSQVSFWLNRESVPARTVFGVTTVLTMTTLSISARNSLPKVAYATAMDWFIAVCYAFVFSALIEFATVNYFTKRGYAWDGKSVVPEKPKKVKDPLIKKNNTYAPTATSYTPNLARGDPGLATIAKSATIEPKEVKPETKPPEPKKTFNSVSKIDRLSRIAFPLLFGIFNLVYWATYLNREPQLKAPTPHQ
T3 sequence (P47870 26-512): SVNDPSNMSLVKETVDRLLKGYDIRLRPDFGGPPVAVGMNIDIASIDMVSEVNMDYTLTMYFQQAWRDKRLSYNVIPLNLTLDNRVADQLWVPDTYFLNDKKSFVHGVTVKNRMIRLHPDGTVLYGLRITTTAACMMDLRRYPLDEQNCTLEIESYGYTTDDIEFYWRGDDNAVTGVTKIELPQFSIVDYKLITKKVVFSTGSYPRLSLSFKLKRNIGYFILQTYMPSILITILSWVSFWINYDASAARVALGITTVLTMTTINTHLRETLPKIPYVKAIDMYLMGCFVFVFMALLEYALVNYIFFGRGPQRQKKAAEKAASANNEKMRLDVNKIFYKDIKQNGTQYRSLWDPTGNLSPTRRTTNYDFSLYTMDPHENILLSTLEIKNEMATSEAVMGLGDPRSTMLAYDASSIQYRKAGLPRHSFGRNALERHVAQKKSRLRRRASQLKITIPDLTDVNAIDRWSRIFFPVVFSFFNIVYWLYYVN

[4] = molecular target: T4, nAChRα7 (Homo sapiens, UniProt P36544); experiment: Whole-cell patch-clamp of acetylcholine ion channel currents, transfected HEK293 cells; format: cell-based; conditions: nACHR; alkaloid 300 µM; mean ± SE
T4 construct: expressed in transfected cells; host or cells: HEK293
T4 sequence (P36544 23-502): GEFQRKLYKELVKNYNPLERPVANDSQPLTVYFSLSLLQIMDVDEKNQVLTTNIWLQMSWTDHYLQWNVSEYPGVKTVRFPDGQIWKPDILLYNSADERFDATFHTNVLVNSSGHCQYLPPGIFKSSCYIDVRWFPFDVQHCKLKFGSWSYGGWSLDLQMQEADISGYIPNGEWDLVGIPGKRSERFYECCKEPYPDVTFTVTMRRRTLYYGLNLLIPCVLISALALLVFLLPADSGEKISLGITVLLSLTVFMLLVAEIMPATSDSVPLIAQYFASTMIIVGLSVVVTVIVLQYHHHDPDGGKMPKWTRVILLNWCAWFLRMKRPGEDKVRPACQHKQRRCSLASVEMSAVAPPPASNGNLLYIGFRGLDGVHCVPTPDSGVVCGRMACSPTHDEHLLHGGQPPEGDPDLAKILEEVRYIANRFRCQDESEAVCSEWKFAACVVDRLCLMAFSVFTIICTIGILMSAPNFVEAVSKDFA
Description: as §1
For whole-cell recording, the […] contained 140 mM NaCl, 3.5 mM KCl, 1 mM MgCl2•6H2O, 2 mM CaCl2•2H2O, 10 mM D-glucose, 10 mM HEPES, and 1.25 mM NaH2PO4•2H2O, (pH 7.4). […] Electrode resistance (Rpip) was recorded, and the electrode was gently positioned on the cell surface with negative pressure applied to establish a GΩ-level high-resistance seal. […] Finally, slow capacitance compensation was performed, and experimental parameters such as series resistance (Rs) were recorded. […] We aimed to study the allosteric regulation of GABAAR and GlyR by Gelsemium alkaloids, so the effects of the alkaloids on Gly- or GABA-evoked currents were determined via co-application of subsaturated agonist concentrations (EC10 and EC50) together with the alkaloid. […]

[5] = test system: GABAAR; set-up: method as in PMID 32541553, PMID 32391682; conditions: read-out: EC50 for positive allosteric modulation of GABAAR; cited from earlier work
[6] = test system: GlyR; conditions: read-out: IC50 for GlyR; cited from earlier work
[7] = α1GlyR, reduction of glycine-evoked current, n = 4, read-out: IC50

Compound | IC50 [1] | activity on GlyR currents (in words) [1] | percentage change in peak current modulation ([1]; α1GlyR) | percentage change in peak current modulation [2] | Hillslope [3] | percentage change in peak current modulation [3] | IC50 [3] | EC50 [3] | IC50 [1, 7] | percentage change in peak current modulation [4] | EC50 [5] | IC50 [6]
C=C[C@]12CN(C)[C@@H]3[C@H]4CO[C@H](C[C@H]41)[C@]1(C(=O)Nc4ccccc41)[C@@H]32 [Gelsemine, gelsemine] | 10.4 µM | strong activity | −70.39% ± 4.85% | −92.18% ± 2.87% | −0.9158 | −58.78% ± 1.74% | 171 µM |  |  |  |  | 
CCC1=N[C@H]2C[C@@]3(C(=O)N(OC)c4ccccc43)[C@H]3C[C@@H]1[C@@H]2CO3 [Gelsenicine, gelsenicine] |  | minimal effect | −13.64% ± 4.34% | −10.44% ± 5.99% | 0.8002 | 58.63% ± 5.56% |  | 192 µM |  |  |  | 
C=C[C@]12CN(C)[C@@H]3[C@H]4CO[C@H](C[C@H]41)[C@]1(C(=O)N(OC)c4ccccc41)[C@@H]32 [Gelsevirine, gelsevirine] |  | strong activity | −98.89% ± 0.68% | −99.06% ± 0.62% | −1.110 | −55.82% ± 0.35% | 252 µM |  | 82.9 µM | 0.75% ± 0.65% |  | 
C=C[C@@]12CN(C)[C@H]3C[C@]14C(=Nc1ccccc14)[C@H]1C[C@@H]2[C@@H]3CO1 [Koumine, koumine] |  | strong activity | −95.53% ± 0.70% | −87.29% ± 0.52% |  |  |  |  | 9.59 µM | 1.42% ± 0.00% |  | 
CN1C(=O)CN=C(c2ccccc2)c2cc(Cl)ccc21 [diazepam] |  |  |  |  |  |  |  |  |  |  | ~0.005 µM | 
O=C1C[C@@H]2OCC=C3CN4CC[C@]56c7ccccc7N1[C@H]5[C@H]2[C@H]3C[C@H]46 [strychnine] |  |  |  |  |  |  |  |  |  |  |  | ~0.18 µM
humantenirine |  | minimal effect | −11.75% ± 4.34% | −16.82% ± 4.41% |  | 41.66% ± 0.53% |  |  |  |  |  | 
